Measurements from patent US20210220340A1, “COMPOSITION FOR PREVENTION OR TREATMENT OF NEURODEGENERATIVE DISEASE” (THE ASAN FOUNDATION, priority 2018, published 2021).
Structures can show the parent of a compound that is named as a salt. Where two headings read alike, the source gives them in different places.

Tests used:
[1] = test system: all PDE isoforms; assay: HTS using all PDE isoforms as targets; format: biochemical; settings: for inhibitory efficacy in all PDE isoforms: Example 18 screening, compared with cilostazol; for IC50: across PDE isoforms, FIG. 31
Description: Compounds included in the library of 800 FDA-approved drugs were diluted 1/4 from a concentration of 100 μM and dispensed into each well in 96-well plates, and mixed with a PDE reactant to allow a PDE reaction with the drug for 1 hour at a constant temperature.
The experiment was carried out in the same manner as used in screening of the FDA-approved drug library. […] Each of the screening library drugs were diluted 1/4 from 100 μM and dispensed into each well in 96-well plates, and mixed with a PDE reactant, followed by allowing a reaction between the drug and PDE for 1 hour for storage. After a stop solution was mixed with a AMP detection agent, the mixture was dispensed at 20 μl per well to allow a reaction for 10 minutes, followed by immediately measuring luminescence, and the experiment was performed according to a protocol provided by the kit used herein.
The first selection started with PDE3 as a target, and after candidate drugs were selected, all PDE isoforms were tested.

[2] = test system: mouse pericytes; assay: Lysosome pH in bafilomycin A1-treated pericytes (LysoSensor, confocal microscope); format: cell-based; settings: mouse pericytes treated with bafilomycin A1 alone
From the text: A system that can visualize changes in intracellular lysosome pH with LysoSensor, which is a pH-sensitive lysosomal dye, in mouse pericytes using a confocal microscope was established (refer to Example 6) to observe whether amlexanox (AMX) is involved in the pH change of lysosomes in cells.
FIG. 19 is a set of time-dependent confocal microscope images (left) of mouse pericytes when being treated with Bafilomycin A1, which is a vATPase inhibitor, and then stained with LysoSensor, and quantified data (right) thereof.
Here, the images on the left side of FIG. 19 are obtained by treating mouse pericytes with bafilomycin A1, which is a vATPase inhibitor, and analyzing the cells using LysoSensor over time by a confocal microscope (top), and by treating the bafilomycin A1-treated mouse pericytes with the finally selected amlexanox (AMX) and analyzing the cells using LysoSensor over time by a confocal microscope (bottom).

[3] = test system: cathepsin B; assay: Lysosomal function activity in astrocytes: degree of hydrolysis of cathepsin B; format: cell-based, mouse; settings: mouse astrocytes treated with bafilomycin A1 alone
Description: (§1) Samples stained with enzymatic dyes such as cathepsin B and cathepsin L were administered into the cell culture to allow a reaction for 30 minutes, and changes in activity of lysosomes in cells were confirmed using a confocal microscope.
(§2) Astrocytes were stained with a fluorescence-tagged lysosomal protein, and the degrees of hydrolysis of cathepsin B and cathepsin L, which are lysosomal proteins, were analyzed.
(§3) FIG. 21 is a set of time-dependent confocal microscope images of mouse astrocytes, which are treated with bafilomycin A1, which is a vATPase inhibitor, to assess the degree of hydrolysis of cathepsin B (top) and cathepsin L (bottom).

[4] = test system: cathepsin L; assay: Lysosomal function activity in astrocytes: degree of hydrolysis of cathepsin L; format: cell-based, mouse; settings: mouse astrocytes treated with bafilomycin A1 alone
Description: as §1, §2, §3

[5] = test system: mouse astrocytes; assay: Lysosome pH change in astrocytes (LysoSensor Green DND-189, acridine orange); format: cell-based; settings: amyloid beta-accumulated
Description: For astrocyte culture, first, cerebral cortices (neocortices) were dissociated from murine fetuses (3 weeks old), and the obtained cortical tissue was divided into single cells. Subsequently, the single cells were seeded, and the cultured astrocytes were stored using a culture medium (DMEM 7% FBS+7% HS+100 U/mL penicillin+100 μg/mL […]) in a humidified incubator at 37[…] under a condition of 5% carbon dioxide. After DIV 10-14, cells grown to 80-90% or more confluence were used, and before an experiment, the cells were washed twice with warm MEM and used. New cells were cultured and used each time without passaging.
FIG. 8A is a set of images that visualize pH changes for 0 to 1 hour in respective groups of mouse astrocytes, which are stained with LysoSensor Green DND-189, and then treated with either amyloid beta (Aβ) or amyloid beta and cilostazol (Aβ+cilo).

[6] = test system: mouse pericytes; assay: Amyloid beta aggregation in pericytes treated with cilostazol (confocal microscopy, western blotting); format: cell-based; settings: 1 hour (confocal) and 24 hours (western blot)
Description: Each type of cell was cultured under the culture conditions, a cell culture was restored, followed by preparing a particulate fraction in a 50 mM Tris buffer. Proteins obtained from the cell culture developed in a SDS polyacrylamide gel, transferred to an immobilon-P membrane (Millipore, USA), and reacted with antibodies overnight. Next day, western blots were washed, reacted with peroxidase-linked secondary antibodies at room temperature for 1 hour, followed by staining bands with 4-chloro-1-naphthol. From the result of Example 1, PDE3, which is specifically highly expressed in pericytes, is selected as a target material. It was observed how the treatment of cilostazol known as a specific inhibitor of PDE3 affects amyloid beta accumulation. FIG. 5 is a set of confocal microscope images of mouse pericytes which are cultured and then treated with CTL (control), amyloid beta (Aβ) and cilostazol (amyloid beta+cilostazol; +cilo) for 1 hour, respectively. The graph on the right side of FIG. 5 is obtained by observing pericytes treated with CTL (control), amyloid beta (Aβ) and cilostazol (amyloid beta+cilostazol; +cilo) for 1 hour, and measuring the fluorescence intensities thereof. […] The graph on the right side of FIG. 6 is obtained by measuring an oligomer/actin expression level and a monomer/actin expression level in each group.

| Compound | inhibitory efficacy in all PDE isoforms [1] | further results |
| --- | --- | --- |
| Oc1c(Cl)cc(Cl)c(Cl)c1Cc1c(O)c(Cl)cc(Cl)c1Cl [hexachloropene] | high inhibitory efficacy |  |
| OCc1ccc(-c2ccc(-c3ccc(CO)s3)o2)s1 [RITA, 5,5′-(2,5-furandiyl)bis-2-thiophenemethanol] | high inhibitory efficacy |  |
| Cc1nc(-c2ccc(OCC(C)C)c(C#N)c2)sc1C(=O)O [febuxostat] | high inhibitory efficacy |  |
| Cc1nc(N)sc1-c1ccnc(Nc2ccc(N3CCOCC3)cc2)n1 [CYC116] | high inhibitory efficacy |  |
| Oc1ccc(/C=C/c2cc(O)cc(O)c2)cc1 [resveratrol] | high inhibitory efficacy |  |
| CN1CCN(c2ccc3nc(-c4c(N)c5c(F)cccc5[nH]c4=O)[nH]c3c2)CC1 [dovitinib] | high inhibitory efficacy |  |
| Cc1ccc(NC(=O)c2ccc(CN3CCN(C)CC3)cc2)cc1Nc1nccc(-c2cccnc2)n1 [imatinib mesylate] | high inhibitory efficacy |  |
| COC1=CC(c2cc3ccccc3[nH]2)=N/C1=C\c1[nH]c(C)cc1C [obatoclax mesylate] | high inhibitory efficacy |  |
| CCc1ccc(OCc2ccccc2C(=O)Nc2ccc3nc(C)cc(N)c3c2)cc1.Cl [JTC-801] | high inhibitory efficacy |  |
| Cc1ccc(NC(=O)c2ccc(CN3CCN(C)CC3)cc2)cc1Nc1nc(-c2cccnc2)cs1 [masitinib] | high inhibitory efficacy |  |
| pifithrin | high inhibitory efficacy |  |
| CO/C1=C\C(C)=C\[C@@H](C)[C@@H](O)[C@@H](C)C/C(C)=C/C=C/[C@H](OC)[C@@H]([C@@H](C)[C@@H](O)[C@H](C)[C@@]2(O)C[C@@H](O)[C@H](C)[C@@H](C(C)C)O2)OC1=O [bafilomycin A1] |  | lysosomal pH [2]: increased; cathepsin B (lysosomal protein activity) [3]: decreased; cathepsin L (lysosomal protein activity) [4]: decreased |
| Oc1cc(O)cc(/C=C/c2ccc(O)c(O)c2)c1 [piceathanol] | high inhibitory efficacy | IC50 ([1]; read-out: inhibition value of each isoform, lowest): ≥ 0.3 nM; IC50 ([1]; read-out: inhibition value of each isoform, maximum): ≤ 5500 nM |
| zafirlukast | high inhibitory efficacy |  |
| O=C1CCc2cc(OCCCCc3nnnn3C3CCCCC3)ccc2N1 [cilostazol] |  | lysosomal function [5]: normalized; pH of lysosomes [5]: acidified; amount of aggregated amyloid beta [6]: significantly reduced |
| O=C(O)c1cccc(-c2noc(-c3ccccc3F)n2)c1 [ataluren] | high inhibitory efficacy |  |
